SMILES strings stand for the structures.

We go through 37 molecules from ChEMBL document CHEMBL1135942, “Synthesis of 5,6-dihydro-11H-benzo[5,6]-cyclohepta[1,2-b]pyridin-11-ylidene)-1-piperidine-N-cyanoguanidine derivatives as inhibitors of ras farnesyl protein transferase” (Bioorg Med Chem Lett, 2002).

This experiment has as its target Protein farnesyltransferase (Homo sapiens, UniProt P49354+P49356). Description: FPT inhibitory activity was determined by the ability to inhibit the transfer of [3H]farnesyl from farnesyl pyrophosphate to H-ras-CLVS. Format: protein-complex assay.
Usually IC50 stands for the concentration that inhibits the measured activity by half. Higher therefore signals a need for much substance. Molecule `N#CN/C(=N/CCO)N1CCC(=C2c3ccc(Cl)cc3CCc3cc(Br)cnc32)CC1` yielded an IC50 of 170 nM.

In turn, `N#CN/C(=N/Cc1ccc2c(c1)OCO2)N1CCC(=C2c3ccc(Cl)cc3CCc3cc(Br)cnc32)CC1` registered an IC50 of 240 nM.

For `CN(C)CCCC/N=C(/NC#N)N1CCC(=C2c3ccc(Cl)cc3CCc3cc(Br)cnc32)CC1`, the IC50 came out at 74 nM.

In turn, `N#CN/C(=N/CC1CCN(C(N)=O)CC1)N1CCC(=C2c3ccc(Cl)cc3CCc3cc(Br)cnc32)CC1` returned an IC50 of 6 nM.

`N#CN=C(Nc1ccc2c(c1)OCO2)N1CCC(=C2c3ccc(Cl)cc3CCc3cc(Br)cnc32)CC1` came in with a concentration for half-maximal inhibition (IC50) of 38 nM. Compared with the last molecule, the IC50 is about 6.3-fold higher.

On to `N#CN=C(NCC1CCCCC1)N1CCC(=C2c3ccc(Cl)cc3CCc3cc(Br)cnc32)CC1`, for which the IC50 stood at 199 nM.

`N#CN=C(NCc1ccc[n+]([O-])c1)N1CCC(=C2c3ccc(Cl)cc3CCc3cc(Br)cnc32)CC1` yielded an IC50 of 12 nM.

`CN(C)c1ccc(CNC(=NC#N)N2CCC(=C3c4ccc(Cl)cc4CCc4cc(Br)cnc43)CC2)cc1`: the IC50 was 100 nM.

`N#CN/C(=N/c1ccccc1)N1CCC(=C2c3ccc(Cl)cc3CCc3cccnc32)CC1` yielded an IC50 of 86 nM.

In turn, `CC(C)c1ccc(N/C(=N\C#N)N2CCC(=C3c4ccc(Cl)cc4CCc4cc(Br)cnc43)CC2)cc1` displayed an IC50 of 150 nM.

The molecule `N#C/N=C(\Nc1ccc([N+](=O)[O-])cc1)N1CCC(=C2c3ccc(Cl)cc3CCc3cc(Br)cnc32)CC1` came in with an IC50 of 62 nM.

In turn, `COc1ccc(C/N=C(/NC#N)N2CCC(=C3c4ccc(Cl)cc4CCc4cc(Br)cnc43)CC2)cc1` showed an IC50 of 310 nM.

For `N#CN=C(N)N1CCC(=C2c3ccc(Cl)cc3CCc3cc(Br)cnc32)CC1`, the IC50 was found to be 2600 nM.

Molecule `N#CN/C(=N/CCOCCO)N1CCC(=C2c3ccc(Cl)cc3CCc3cc(Br)cnc32)CC1` returned an IC50 of 84 nM.

As to `N#CN/C(=N/CCc1ccncc1)N1CCC(=C2c3ccc(Cl)cc3CCc3cc(Br)cnc32)CC1`, the IC50 came to 30 nM.

The molecule `CCOC(=O)N1CCC(NC(=NC#N)N2CCC(=C3c4ccc(Cl)cc4CCc4cc(Br)cnc43)CC2)CC1` displayed an IC50 of 42 nM.

For `N#CN/C(=N/c1ccncc1)N1CCC(=C2c3ccc(Cl)cc3CCc3cc(Br)cnc32)CC1`, the 50% inhibitory concentration (IC50) was under 110 nM.

The molecule `N#CN=C(NC1CC1)N1CCC(=C2c3ccc(Cl)cc3CCc3cc(Br)cnc32)CC1` yielded a concentration for half-maximal inhibition (IC50) of 155 nM. This counts as sub-micromolar.

`CS(=O)(=O)c1ccc(N/C(=N\C#N)N2CCC(=C3c4ccc(Cl)cc4CCc4cc(Br)cnc43)CC2)cc1` returned a concentration for half-maximal inhibition (IC50) of 82 nM.

On to `N#CN=C(NCc1cccnc1)N1CCC(=C2c3ccc(Cl)cc3CCc3cc(Br)cnc32)CC1`, for which the midpoint of inhibition, the IC50, lay at 15 nM. Compared with the last molecule, the IC50 is about 5.5-fold lower.

`N#C/N=C(\Nc1ccc(OC(F)(F)F)cc1)N1CCC(=C2c3ccc(Cl)cc3CCc3cc(Br)cnc32)CC1` had a half-inhibitory concentration (IC50) of 320 nM.

`N#CN=C(NCc1ccccc1)N1CCC(=C2c3ccc(Cl)cc3CCc3cc(Br)cnc32)CC1` came in with an IC50 of 230 nM.

`CCCCNC(=NC#N)N1CCC(=C2c3ccc(Cl)cc3CCc3cc(Br)cnc32)CC1`: the IC50 was 105 nM.

For `O=C(Cc1ccc[n+]([O-])c1)N1CCC([C@H]2c3ncc(Br)cc3CCc3cc(Cl)cc(Br)c32)CC1`, inhibition was half-maximal at 8.2 nM (IC50).

`N#CN=C(Nc1ccc(C#N)cc1)N1CCC(=C2c3ccc(Cl)cc3CCc3cc(Br)cnc32)CC1` registered a 50% inhibitory concentration (IC50) of 32 nM. Compared with the last molecule, the IC50 is about 3.9-fold higher.

`N#CN=C(Nc1ccccc1)N1CCC(=C2c3ccc(Cl)cc3CCc3cc(Br)cnc32)CC1`: the IC50 worked out at 116 nM.

The molecule `N#CN=C(NCC1CCNCC1)N1CCC(=C2c3ccc(Cl)cc3CCc3cc(Br)cnc32)CC1` returned an IC50 of 18 nM.

Regarding `N#CN/C(=N/Cc1cc[n+]([O-])cc1)N1CCC(=C2c3ccc(Cl)cc3CCc3cc(Br)cnc32)CC1`, half-maximal inhibition (IC50) was put at 6 nM. This IC50 lies about 3-fold lower than the previous one.

`CC(C)NC(=NC#N)N1CCC(=C2c3ccc(Cl)cc3CCc3cc(Br)cnc32)CC1`: inhibition was half-maximal at 124 nM (IC50).

Take `N#CN/C(=N/C1CCCCC1)N1CCC(=C2c3ccc(Cl)cc3CCc3cc(Br)cnc32)CC1`: half-maximal inhibition (IC50) required 20 nM. This IC50 is about 6.2-fold lower than that of the molecule before.

`N#CN=C(Nc1ccc(F)cc1)N1CCC(=C2c3ccc(Cl)cc3CCc3cc(Br)cnc32)CC1`: the IC50 is 38 nM.

For `N#CN/C(=N/Cc1ccc[n+]([O-])c1)N1CCC([C@H]2c3ncc(Br)cc3CCc3cc(Cl)cc(Br)c32)CC1`, the 50% inhibitory concentration (IC50) was found to be 1.7 nM.

For the molecule `N#CN=C(NCCc1cnc[nH]1)N1CCC(=C2c3ccc(Cl)cc3CCc3cc(Br)cnc32)CC1`, the IC50 came out at 58 nM.

Take `N#CN=C(Nc1ccc2c(c1)COCO2)N1CCC(=C2c3ccc(Cl)cc3CCc3cc(Br)cnc32)CC1`: half-maximal inhibition (IC50) was put at 15 nM.

Turning to `O=C(CN1CCC(=C2c3ccc(Cl)cc3CCc3cccnc32)CC1)c1ccccc1`, the IC50 was found to be 15800 nM.

In the case of `N#CN/C(=N/CCCn1ccnc1)N1CCC(=C2c3ccc(Cl)cc3CCc3cc(Br)cnc32)CC1`, the IC50 stood at 35 nM.

For the molecule `N#CN/C(=N/Cc1ccccn1)N1CCC(=C2c3ccc(Cl)cc3CCc3cc(Br)cnc32)CC1`, it took 29 nM to reach half-maximal inhibition (IC50).
